{
  "source": "paper PMC5189922",
  "about": "(Journal of medicinal chemistry, 2016)",
  "key": {"human κ-opioid receptor": {"biological_target": "human κ-opioid receptor (Homo sapiens, UniProt P41145)", "sequence (P41145 whole entry)": "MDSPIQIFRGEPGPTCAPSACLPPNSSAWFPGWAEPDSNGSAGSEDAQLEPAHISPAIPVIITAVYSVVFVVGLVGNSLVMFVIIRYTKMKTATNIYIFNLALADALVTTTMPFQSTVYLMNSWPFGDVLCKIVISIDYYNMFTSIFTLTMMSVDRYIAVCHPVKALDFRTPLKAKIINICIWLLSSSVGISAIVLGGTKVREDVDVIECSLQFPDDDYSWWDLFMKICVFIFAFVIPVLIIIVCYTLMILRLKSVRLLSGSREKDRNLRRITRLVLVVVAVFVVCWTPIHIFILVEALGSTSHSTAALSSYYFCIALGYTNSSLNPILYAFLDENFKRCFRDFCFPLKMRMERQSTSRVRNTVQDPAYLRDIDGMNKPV", "type": "cell-based"}, "[1]": {"test_system": "human µ-opioid receptor β-arrestin-2", "assay": "MOR-mediated β-arrestin-2 recruitment", "type": "cell-based"}, "Hot water": {"assay": "Hot water", "type": "in vivo, mice", "details": "for antinociceptive effect in tail-flick assay: male B6-SJL mice, 10 s cutoff"}, "[2]": {"assay": "Accelerating rotarod performance assay"}, "[3]": {"assay": "Conditioned place preference", "details": "male Sprague Dawley rats, vs vehicle"}, "human µ-opioid receptor": {"biological_target": "human µ-opioid receptor (Homo sapiens, UniProt P35372)", "sequence (P35372 whole entry)": "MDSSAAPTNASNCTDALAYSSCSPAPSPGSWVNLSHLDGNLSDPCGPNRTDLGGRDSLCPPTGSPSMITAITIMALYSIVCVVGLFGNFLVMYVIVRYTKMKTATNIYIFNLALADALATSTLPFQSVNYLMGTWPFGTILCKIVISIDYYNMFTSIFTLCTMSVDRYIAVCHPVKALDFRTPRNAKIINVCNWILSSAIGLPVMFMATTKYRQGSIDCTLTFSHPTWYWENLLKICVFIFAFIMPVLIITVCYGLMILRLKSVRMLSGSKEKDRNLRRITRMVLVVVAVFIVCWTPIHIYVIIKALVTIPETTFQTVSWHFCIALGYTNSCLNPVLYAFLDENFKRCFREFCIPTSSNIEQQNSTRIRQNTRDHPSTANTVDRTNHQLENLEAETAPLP", "type": "cell-based"}, "[4]": {"assay": "Cumulative dose-response tail-flick assay and tolerance evaluation", "type": "in vivo, mice", "details": "cumulative dosing, day 9 after daily 10 mg/kg s.c. on days 2–8 (tolerance)"}},
  "note": "“Also recorded” adds a separate entry of the source.",
  "data": [
    {"smiles": "COC(=O)[C@@H]1C=C(O)C(=O)[C@H]2[C@@]1(C)CC[C@H]1C(=O)O[C@H](c3ccoc3)C[C@]21C", "note": "[Compound 7a, Methyl-(2S,4aR,6aR/S,7R,10aR,10bR)-2-(furan-3-yl)-9-hydroxy-6a,10b-dimethyl-4,10-dioxo-2,4,4a,5,6,6a,7,10,10a,10b-decahydro-1H-;benzo[f]isochromene-7-carboxylate]", "values": [
      {"measurement": "activity at KORs (in words)", "setting": "human κ-opioid receptor", "result": "active"}
    ]},
    {"smiles": "COC(=O)[C@@H]1C[C@H](OC(=O)c2ccccc2)C(=O)[C@H]2[C@@]1(C)CC[C@H]1C(=O)O[C@H](c3ccoc3)C[C@]21C", "note": "[Compound 2, herkinorin, reference compound]", "values": [
      {"measurement": "activity at KORs (in words)", "setting": "human κ-opioid receptor", "result": "partial agonist"},
      {"measurement": "EC50", "setting": "[1]; read-out: β-arrestin-2 recruitment EC50", "result": "> 3000", "unit": "nM"},
      {"measurement": "antinociceptive effect in tail-flick assay", "setting": "Hot water; 1, 5, and 10 mg/kg i.p.", "result": "no significant antinociceptive effects"},
      {"measurement": "motor coordination on rotarod", "setting": "[2]; dose not given, data not shown", "result": "no observable effect on motor co-ordination"},
      {"measurement": "conditioned place preference (CPP score)", "setting": "[3]; 5 mg/kg", "result": "Neither 5 (5 and 10 mg/kg) nor 2 (5 mg/kg) were significantly different to vehicle"}
    ]},
    {"smiles": "COC(=O)[C@@H]1C[C@@H](OC(=O)c2ccccc2)C(=O)[C@H]2[C@@]1(C)CC[C@H]1C(=O)O[C@H](c3ccoc3)C[C@]21C", "note": "[Compound 4]", "values": [
      {"measurement": "activity at MORs (in words)", "setting": "human µ-opioid receptor", "result": "complete loss of activity"},
      {"measurement": "activity at KORs (in words)", "setting": "human κ-opioid receptor", "result": "complete loss of activity"}
    ]},
    {"smiles": "CC(=O)O[C@@H]1C[C@H](NC(=O)c2ccccc2)C(=O)[C@H]2[C@@]1(C)CC[C@H]1C(=O)O[C@H](c3ccoc3)C[C@]21C", "note": "[Compound 3, herkamide, reference compound]", "values": [
      {"measurement": "Selectivity κ/µ", "setting": "human µ-opioid receptor", "result": ">3 000"}
    ]},
    {"smiles": "COC(=O)[C@@H]1CC(=O)C(O)=C2[C@@]1(C)CC[C@H]1C(=O)O[C@H](c3ccoc3)C[C@]21C", "note": "[Compound 7b, Methyl-(2S,4aR,6aS,7R,10bS)-2-(furan-3-yl)-10-hydroxy-6a,10b-dimethyl-4,9-dioxo-1,4,4a,5,6,6a,7,8,9,10b-decahydro-2H-benzo[f]isochromene-7-carboxylate]", "values": [
      {"measurement": "activity at KORs (in words)", "setting": "human κ-opioid receptor", "result": "completely inactive"}
    ]},
    {"smiles": "COC(=O)[C@@H]1C=C(OC(=O)c2ccccc2)C(=O)[C@H]2[C@@]1(C)CC[C@H]1C(=O)O[C@H](c3ccoc3)C[C@]21C", "note": "[Compound 5, (2S,4aR, 6aR,7R,10aR,10bR)-Methyl 9-((benzoyl)oxy)-2-(furan-3-yl)-6a,10b-dimethyl-4,10-dioxo-2,4,4a,5,6,6a,7,10,10a,10b-decahydro-1H-benzo[f]isochromene-7-carboxylate]", "values": [
      {"measurement": "activity at KORs (in words)", "setting": "human κ-opioid receptor", "result": "no activity"},
      {"measurement": "Emax", "setting": "[1]; read-out: % Efficacy ± SEM", "result": "96 ± 3", "unit": "%"},
      {"measurement": "time of maximal antinociceptive effects", "setting": "Hot water; 10 mg/kg i.p.", "result": 30, "unit": "min"},
      {"measurement": "antinociceptive effect in tail-flick assay", "setting": "Hot water; 5 and 10 mg/kg i.p., vs vehicle", "result": "significant antinociceptive effects"},
      {"measurement": "antinociceptive effect after naloxone pre-treatment", "setting": "Hot water; naloxone 10 mg/kg s.c. 45 min pre-treatment", "result": "blocked"},
      {"measurement": "EC50 antinociception day 9", "setting": "[4]", "result": 7.9, "unit": "mg/kg"},
      {"measurement": "motor coordination / sedation on rotarod", "setting": "[2]; 10 mg/kg i.p., 4 to 40 rpm over 300 s", "result": "slight sedation only at the 15 min time point"},
      {"measurement": "conditioned place preference (CPP score)", "setting": "[3]; 5 mg/kg and 10 mg/kg i.p.", "result": "CPP score similar to the vehicle control; also recorded: Neither 5 (5 and 10 mg/kg) nor 2 (5 mg/kg) were significantly different to vehicle"}
    ]},
    {"smiles": "CC(=O)O[C@@H]1C=C(OC(=O)c2cccc(F)c2)C(=O)[C@H]2[C@@]1(C)CC[C@H]1C(=O)O[C@H](c3ccoc3)C[C@]21C", "note": "[Compound 9b]", "values": [
      {"measurement": "Selectivity κ/µ", "setting": "human µ-opioid receptor", "result": ">2 000"}
    ]}
  ]
}
